PubChem BioAssay AID248 (DTP/NCI, 2004)
Inconclusive results and toxic doses are left out.

System: L1210 leukemia ip in BDF1 mice, survival T/C
Test: NCI In Vivo Anticancer Drug Screen. Data for tumor model L1210 Leukemia (intraperitoneal) in B6D2F1 (BDF1) mice
Details: endpoint: mean survival time, higher = longer survival
Method in brief: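 Mice bearing the transplanted tumor received compound or vehicle. Survival of the treated group was divided by that of the vehicle-treated control group to give the ratio.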

[1] = dose: 100.0 mg/kg/injection, schedule: Q01DX009 (ip), vehicle: saline with Tween-80
[2] = dose: 100.0 mg/kg/injection, schedule: Q04DX003 (ip), vehicle: saline with Tween-80
[3] = dose: 200.0 mg/kg/injection, schedule: Q01DX009 (ip), vehicle: saline with Tween-80
[4] = dose: 200.0 mg/kg/injection, schedule: Q04DX003 (ip), vehicle: saline with Tween-80
[5] = dose: 400.0 mg/kg/injection, schedule: Q01DX009 (ip), vehicle: saline with Tween-80
[6] = dose: 400.0 mg/kg/injection, schedule: Q04DX003 (ip), vehicle: saline with Tween-80
[7] = dose: 50.0 mg/kg/injection, schedule: Q01DX009 (ip), vehicle: saline with Tween-80
[8] = dose: 100.0 mg/kg/injection, schedule: Q04DX002 (ip), vehicle: Klucel (hydroxypropylcellulose) (HPC)
[9] = dose: 200.0 mg/kg/injection, schedule: Q04DX002 (ip), vehicle: Klucel (hydroxypropylcellulose) (HPC)
[10] = dose: 400.0 mg/kg/injection, schedule: Q04DX002 (ip), vehicle: Klucel (hydroxypropylcellulose) (HPC)
[11] = dose: 50.0 mg/kg/injection, schedule: Q01DX009 (ip), vehicle: saline
[12] = dose: 50.0 mg/kg/injection, schedule: Q01DX001 (ip), vehicle: saline
[13] = dose: 100.0 mg/kg/injection, schedule: Q01DX001 (ip), vehicle: saline
[14] = dose: 200.0 mg/kg/injection, schedule: Q01DX001 (ip), vehicle: saline
[15] = dose: 400.0 mg/kg/injection, schedule: Q01DX001 (ip), vehicle: saline
[16] = dose: 100.0 mg/kg/injection, schedule: Q01DX009 (ip), vehicle: saline
[17] = dose: 100.0 mg/kg/injection, schedule: Q01DX009 (ip), vehicle: Klucel (hydroxypropylcellulose) (HPC)
[18] = dose: 200.0 mg/kg/injection, schedule: Q01DX009 (ip), vehicle: Klucel (hydroxypropylcellulose) (HPC)
[19] = dose: 100.0 mg/kg/injection, schedule: Q04DX003 (ip), vehicle: Klucel (hydroxypropylcellulose) (HPC)
[20] = dose: 200.0 mg/kg/injection, schedule: Q04DX003 (ip), vehicle: Klucel (hydroxypropylcellulose) (HPC)
[21] = dose: 400.0 mg/kg/injection, schedule: Q04DX003 (ip), vehicle: Klucel (hydroxypropylcellulose) (HPC)
[22] = dose: 75.0 mg/kg/injection, schedule: Q01DX001 (ip), vehicle: saline
[23] = dose: 150.0 mg/kg/injection, schedule: Q01DX001 (ip), vehicle: saline
[24] = dose: 300.0 mg/kg/injection, schedule: Q01DX001 (ip), vehicle: saline

CC(O)(Cc1ccccc1)c1ccccc1 (stereo unspecified)
T/C (dose: 44.0 mg/kg/injection, schedule: Q04DX003 (ip), vehicle: saline with Tween-80): 94 % of control | T/C (dose: 66.0 mg/kg/injection, schedule: Q04DX003 (ip), vehicle: saline with Tween-80): 94 % of control | T/C [1]: 102 % of control | T/C [2]: 94 % of control | T/C (dose: 150.0 mg/kg/injection, schedule: Q04DX003 (ip), vehicle: saline with Tween-80): 96 % of control | T/C [3]: 98 % of control | T/C [4]: 107 % of control | T/C [5]: 102 % of control | T/C [6]: 104 % of control

O=C(/C(=N\O)c1ccc(Cl)cc1)c1ccc(Cl)cc1
T/C [7]: 100 % of control | T/C [1]: 89 % of control | T/C [3]: 92 % of control

CC(C)C(=O)NCc1ccccc1
T/C [8]: 104 % of control | T/C [9]: 101 % of control | T/C [10]: 90 % of control

CC(=O)NC(CSC(c1ccccc1)(c1ccccc1)c1ccccc1)C(=O)O (stereo unspecified)
T/C (dose: 25.0 mg/kg/injection, schedule: Q01DX009 (ip), vehicle: saline): 102 % of control | T/C [11]: 96 % of control

COC(=O)C1CN(Cc2ccccc2)C(=O)C1=O (stereo unspecified)
T/C [12]: 100 % of control | T/C [13]: 100 % of control | T/C [14]: 90 % of control | T/C [15]: 96 % of control

O=C1C=CC(=O)c2[nH]c(-c3ccccc3)cc21
T/C (dose: 12.5 mg/kg/injection, schedule: Q04DX002 (ip), vehicle: Klucel (hydroxypropylcellulose) (HPC)): 93 % of control | T/C (dose: 25.0 mg/kg/injection, schedule: Q04DX002 (ip), vehicle: Klucel (hydroxypropylcellulose) (HPC)): 105 % of control

Clc1ccc(/C=N/c2ccccn2)cc1
T/C [13]: 102 % of control | T/C [14]: 102 % of control | T/C [15]: 100 % of control

Clc1nc(Cl)c(Cl)nc1Cl
T/C (dose: 25.0 mg/kg/injection, schedule: Q01DX009 (ip), vehicle: saline with Tween-80): 102 % of control | T/C [7]: 100 % of control | T/C [1]: 100 % of control | T/C [3]: 110 % of control | T/C [5]: 96 % of control

COC1C(OC(=O)/C=C/C=C/C=C/C=C/C(=O)O)CCC2(CO2)C1C1(C)OC1CC=C(C)C (stereo unspecified)
T/C (dose: 2.5 mg/kg/injection, schedule: Q01DX Z (ip), vehicle: methylcellulose (MC)): 115 % of control | T/C (dose: 5.0 mg/kg/injection, schedule: Q01DX Z (ip), vehicle: methylcellulose (MC)): 110 % of control | T/C (dose: 10.0 mg/kg/injection, schedule: Q01DX Z (ip), vehicle: methylcellulose (MC)): 115 % of control | T/C (dose: 10.0 mg/kg/injection, schedule: Q01DX Z (ip), vehicle: saline): 109 % of control | T/C (dose: 20.0 mg/kg/injection, schedule: Q01DX Z (ip), vehicle: methylcellulose (MC)): 118 % of control | T/C (dose: 20.0 mg/kg/injection, schedule: Q01DX Z (ip), vehicle: saline): 115 % of control | T/C (dose: 40.0 mg/kg/injection, schedule: Q01DX Z (ip), vehicle: methylcellulose (MC)): 121 % of control | T/C (dose: 40.0 mg/kg/injection, schedule: Q01DX Z (ip), vehicle: saline): 123 % of control | T/C [11]: 101 % of control | T/C (dose: 50.0 mg/kg/injection, schedule: Q04DX003 (ip), vehicle: saline): 116 % of control | T/C (dose: 80.0 mg/kg/injection, schedule: Q01DX Z (ip), vehicle: saline): 120 % of control | T/C [13]: 93 % of control | T/C [16]: 101 % of control | T/C (dose: 100.0 mg/kg/injection, schedule: Q04DX003 (ip), vehicle: saline): 93 % of control | T/C [14]: 93 % of control | T/C (dose: 200.0 mg/kg/injection, schedule: Q01DX009 (ip), vehicle: saline): 106 % of control | T/C (dose: 200.0 mg/kg/injection, schedule: Q04DX003 (ip), vehicle: saline): 98 % of control

C1=CC2OC3CCCCC3C2c2ccccc21 (stereo unspecified)
T/C (dose: 100.0 mg/kg/injection, schedule: Q01DX001 (ip), vehicle: carboxymethylcellulose (CMC)): 95 % of control | T/C (dose: 200.0 mg/kg/injection, schedule: Q01DX001 (ip), vehicle: carboxymethylcellulose (CMC)): 95 % of control | T/C (dose: 400.0 mg/kg/injection, schedule: Q01DX001 (ip), vehicle: carboxymethylcellulose (CMC)): 98 % of control

CN(C)c1ccc(/C=N/NC(=O)c2ccc(N)cc2)cc1
T/C [17]: 89 % of control | T/C [18]: 86 % of control | T/C (dose: 400.0 mg/kg/injection, schedule: Q01DX009 (ip), vehicle: Klucel (hydroxypropylcellulose) (HPC)): 89 % of control

O=C(O)COc1c(Cl)cc(Cl)cc1Cl
T/C [8]: 100 % of control | T/C [9]: 100 % of control | T/C [10]: 96 % of control

COC(=O)C1(C(=O)OC)C2CCCCC21 (stereo unspecified)
T/C (dose: 100.0 mg/kg/injection, schedule: Q01DX001 (ip), vehicle: Klucel (hydroxypropylcellulose) (HPC)): 90 % of control | T/C [19]: 96 % of control | T/C (dose: 200.0 mg/kg/injection, schedule: Q01DX001 (ip), vehicle: Klucel (hydroxypropylcellulose) (HPC)): 103 % of control | T/C [20]: 104 % of control | T/C (dose: 400.0 mg/kg/injection, schedule: Q01DX001 (ip), vehicle: Klucel (hydroxypropylcellulose) (HPC)): 98 % of control | T/C [21]: 98 % of control

CC(=O)NC(Cc1ccccc1)C(=O)O (stereo unspecified)
T/C (dose: 50.0 mg/kg/injection, schedule: Q04DX003 (ip), vehicle: Klucel (hydroxypropylcellulose) (HPC)): 94 % of control | T/C [19]: 103 % of control | T/C [20]: 100 % of control

Cc1ccc(SCC#CCOc2ccc(Cl)cc2)cc1
T/C [22]: 93 % of control | T/C (dose: 75.0 mg/kg/injection, schedule: Q01DX009 (ip), vehicle: saline): 99 % of control | T/C [23]: 95 % of control | T/C (dose: 150.0 mg/kg/injection, schedule: Q01DX009 (ip), vehicle: saline): 99 % of control | T/C [24]: 93 % of control | T/C (dose: 300.0 mg/kg/injection, schedule: Q01DX009 (ip), vehicle: saline): 96 % of control

Cc1cc(C)c(C(=O)OC(c2ccccc2)C(C)c2ccccc2)c(C)c1 (stereo unspecified)
T/C [22]: 94 % of control | T/C [23]: 94 % of control | T/C [24]: 89 % of control

Cc1ccc(S(=O)(=O)NC(N)=NCCCC(NC(=O)OC(C)(C)C)C(=O)O)cc1 (stereo unspecified)
T/C [1]: 89 % of control | T/C [3]: 86 % of control | T/C [5]: 86 % of control

Cc1cccc(CSc2nc(N)nc3c2ncn3C2CC(O)C(CO)O2)n1 (stereo unspecified)
T/C (dose: 100.0 mg/kg/injection, schedule: Q01DX005 (ip), vehicle: saline): 104 % of control | T/C [16]: 113 % of control | T/C (dose: 200.0 mg/kg/injection, schedule: Q01DX005 (ip), vehicle: saline): 107 % of control | T/C (dose: 600.0 mg/kg/injection, schedule: Q01DX009 (ip), vehicle: saline): 153 % of control

CC(N)C(=O)NC(C(=O)O)C(C)O (stereo unspecified)
T/C (dose: 25.0 mg/kg/injection, schedule: Q04DX002 (ip), vehicle: saline): 98 % of control | T/C (dose: 50.0 mg/kg/injection, schedule: Q04DX002 (ip), vehicle: saline): 121 % of control | T/C (dose: 100.0 mg/kg/injection, schedule: Q04DX002 (ip), vehicle: saline): 113 % of control

OCc1cc(Cl)cc(Cl)c1O
T/C [1]: 97 % of control | T/C [2]: 97 % of control | T/C [4]: 98 % of control | T/C [6]: 101 % of control

CN1C(=O)CN=C(c2ccc[nH]2)c2cc(Cl)ccc21 (tested in a mixture with another compound)
T/C [17]: 96 % of control | T/C [19]: 103 % of control | T/C [18]: 91 % of control | T/C [20]: 102 % of control | T/C [21]: 105 % of control

COC1OCC(NC(C)=O)C(O)C1O (stereo unspecified)
T/C [12]: 102 % of control | T/C [13]: 102 % of control | T/C [14]: 100 % of control | T/C [15]: 107 % of control

OC(C/C(CNNc1ccccc1)=N/Nc1ccccc1)(C(F)(F)F)C(F)(F)F
T/C [19]: 96 % of control | T/C [20]: 103 % of control | T/C [21]: 92 % of control
